In patent publication US8357407B2, “Agent for cutaneous photoprotection against UVA/UVB rays” (priority 2009, dated 2013):
Where “and” joins values, the source holds several entries; their conditions need not be identical. Equal entries are not always repeated. Marks after values point to notes of the source that are not given here.

Columns and labels:
[1] = test system: rat skin under UVB radiation; assay: Second test: UVB-induced dermal erythema and sunburnt cells in rat skin; format: in vivo; set-up: key to presence or absence of erythema or its manifestations in the treated area, per animal: presence (+); absence (−)
Experimental: They were acclimatized to the location where the tests were carried out during 7 days after being received. […] The animals were fed ad libitum with a standard rodent diet and running water during this period and during the experimental period. […] The products to be tested were applied directly on the skin as a gel. The test was conducted following the method described by Winder et al. “A Study of Pharmacological Influences of Ultraviolet Erythema in Guinea Pigs”. Arch. Int Pharmacodyn, 116: 261-292. 1958, and other authors such as Wendy, J et al. “The Local Antinociceptive and Topical Anti-inflammatory Effects of Propyl Gallate in Rodents”. Br. J. Pharmacol, 58: 573-581. 1976, and […]. et al. “Protective Effects of Silymarin Against Photocarcinogenesis in a Mouse Skin Model”. J. Natl. Cancer Inst. 89: 556-65. 1997, with slight modifications. The animals were shaved clean six days before the test to eliminate all traces of hair, leaving the skin on their backs completely bare. A morning (10:00 h) and evening (20:00 h) dosage regime for the substance to be tested or for the standard commenced on the first day of the test on a randomized and blind basis lasting 3 days. On the third day, after applying the corresponding morning treatments, the animals were placed and secured in the equipment's exposure platform. The animals were then placed 8 cm from the 4*40 W ultraviolet light source emitting at a fundamental frequency of 313 nm and in a range from approximately 290 to 350 nm, with an anti-UVC filter. The exposure was maintained until all animals received a total dosage of approximately 2.5 kJ/m2, with the irradiation dosis determined by means of an ultraviolet light detector. The backs of the animals were photographed 24 hours after the exposure, and the animals were sacrificed by cervical dislocation. The back skin was removed and a 2×2 cm fragment located under the area were the substance to be tested was applied was placed and maintained for 6 hours in a jar with 10% tamponated formalin, before initiating the paraffin inclusion process and preparation for the histological study. The preparations were observed under an optical microscope and the epidermal-dermal space was photographed at ×100 magnification in 5 different locations for each preparation. A count of sunburnt cells was made for each photograph, considering cells as sunburnt if they had hypereosinophilic cytoplasm with small dark and irregular dense nuclei different than those of its neighbors. The evaluation of the erythema was made on a positive/negative basis, obtaining the percentage of protected animals. The number of hypereosinophilic cells with pyknotic nuclei (sunburnt) was counted in the photographic fields for each of the five different sectors in each histological preparation. The sum of the five counts was considered as the value for each animal. […] The statistical significance of the differences was evaluated by means of non-parametric tests, such as the Fisher Test or the χ^2 (Chi Squared).

[2] = UV/VIS comparative spectral absorption; format: physicochemical
Text: The AEDA was subjected to a UV/VIS spectral analysis at 200-400 nm to determine the peak absorbency of the compounds with UV absorbing characteristics present in the AEDA. A SHIMADZU UV-160 photospectrometer was used for this purpose, with the samples diluted in ethanol until a visible reading in the spectrum was obtained.
The AEDA absorption spectra show maximum absorption at wavelengths under 240 nm. In the band from approximately 250 nm to 350 nm. AEDA offers stable absorbency between 0.75 and 1.5 UA that blocks a significant amount of UVC, UVB and the more energetic portion of UVA light. Part of its effects may therefore be due to a screen effect that prevents the luminous radiation from reaching the skin.
The first two are located before the UVC band, and the third appears above 285 nm and extends to almost 340 nm. This behavior is typical of the polyphenols present in numerous vegetals, which provide and an effective screen effect that protects plants from solar light. When comparing the concentrations required to reach similar absorbencies, it can be observed that ferulic acid develops its effective blocking ability at 50 μg/ml, whereas with AEDA, 500 μg/ml produce a block equivalent to 50% of that obtained with 50 μg/ml of ferulic acid. To produce similar blocking intensities, the necessary concentrations of AEDA must be 10 to 50 times higher than with ferulic acid.

[3] = EDA 300 mg/ml or ferulic acid 0.5% topical, p < 0.01 versus Vehicle

With `COc1cc(/C=C/C(=O)O)ccc1O` [Ferulic Acid, ferulic acid] the “number of sunburnt cells, Average ± S.E.M.” value ([1]; 10 animals per group, EDA 300 mg/ml or ferulic acid 0.5% topical, positive control vehicle 32.7 ± 1.52) was 5.2 ± 1.08, the “number of sunburnt cells (in words)” value ([1]; AEDA 300 mg/ml or ferulic acid 0.5% topical, histology) was “small” and the “erythema, % inhibition versus Positive Control Vehicle (suppression, subjective criteria)” value ([1]; EDA 300 mg/ml or ferulic acid 0.5% topical) was 90%. For the same molecule, the “erythema, % Protected animals” value [1, 3] was 70%*, the “sunburnt cells, % inhibition versus Positive Control Vehicle” value [1, 3] was 84.1%* and the “erythema, % Protected animals” value ([1]; EDA 300 mg/ml or ferulic acid 0.5% topical, p < 0.01 versus Vehicle, listed as ferulic acid) was 70%. For the same molecule, the “presence or absence of erythema or its manifestations in the treated area, per animal” value ([1]; individual animals 1-10, EDA 300 mg/ml or ferulic acid 0.5% topical, 24 hours after UVB exposure) was “− (6×) and + (3×)”, the “number of sunburnt cells per animal (sum of five counts)” value ([1]; individual animals 1-10, EDA gel 300 mg/ml or ferulic acid gel 0.5%, 100 μl topical twice daily for 3 days, UVB approx. 2.5 kJ/m2, 24 hours after exposure) was 8 and 4 (2×) and 3 (2×) and 2 and 10 and 0 and 11 and 7 and the “concentration at which effective UV blocking ability develops” value [2] was 50 µg/mL.
